Test results published in patent US12357598B2, “Treatment of neurodevelopmental disorders” (THE REGENTS OF THE UNIVERSITY OF CALIFORNIA, priority 2018, dated 2025).

Columns and labels:
Ephx2 mRNA = assay: Quantitative RT-PCR of Ephx2 mRNA after maternal glyphosate exposure; assay type: in vivo, mouse; conditions: juvenile offspring (P28) after maternal glyphosate exposure vs water
Text: Gene expression analysis by quantitative real-time PCR. At juvenile (P28) stage, mice were sacrificed, and their brains were removed for measurement of gene expression of Ephx2 mRNA. Brain regions such as PFC, hippocampus, and striatum were dissected from brain on ice. A quantitative RT-PCR system (Step One Plus, Thermo Fisher Scientific, Yokohama, Japan) was used to measure mRNAs. The specific mRNA transcripts were quantified by TaqManGene Expression assays (Thermo Fisher Scientific, Yokohama, Japan). Expression levels of Ephx2 (Mm01313813_m1) was measured in brain tissue. Total RNA was extracted by use of an RNeasy Mini Kit (Qiagen, Hilden, Germany). The purity of total RNA was assessed by Biophotometer plus (Eppendorf, Hamburg, Germany). The RNA samples were used in the first strand cDNA synthesis with High Capacity cDNA Reverse Transcription Kit (#4368813 Thermo Fisher Scientific, Yokohama, Japan). All samples were tested in triplicate and average values were used for quantification. The average values were normalized to Vic-labeled Actb mRNA (Cat #4352341E: pre-developed TaqMan Assay Reagents, Thermo Fisher Scientific, Yokohama, Japan).

ddY mice = assay: Oxylipin profiling of brain regions of juvenile offspring after prenatal poly(I:C) (MIA); assay type: in vivo, mouse; conditions: juvenile offspring (P28) after prenatal poly(I:C)
Method: Administration of poly(I:C) into pregnant mice. The schedule of poly(I:C) treatment was performed as reported previously (13,36-39). The pregnant mice were injected intraperitoneally (i.p.) for six consecutive days from E12 to E17 with poly(I:C) (5.0 mg/kg/day, Sigma-Aldrich Co. Ltd., St. Louis, MO, USA) dissolved in physiological saline, or an equivalent volume (5 ml/kg) of saline. The male offspring were separated from their mothers at wearing (P21), and mice were caged each three-five in the groups in clear polycarbonate cage (22.5×33.8×14.0 cm). Mice were housed under controlled temperatures and 12-hour light/dark cycles (lights on between 07:00-19:00 h), with ad libitum food and water.
Collection of brain samples and oxylipin profiling. The pregnant mice were injected i.p. with poly(I:C) (5.0 mg/kg/day for 6 days from E12 to E17) or saline, as described above. The male offspring were separated from their mothers at wearing (P21). On P28, mice were deeply anesthetized with isoflurane and brains were removed from the skulls. For Western blot analysis, brain regions such as prefrontal cortex (PFC), striatum, CA1, CA3 and dentate gyrus (DG) of the hippocampus were dissected from brain on ice using a Leica microscope S9E (Leica Microsystems, Tokyo, Japan). The samples were stored at −80° C. before assay. For oxylipin analysis, PFC, hippocampus, and cerebellum were dissected from brain on ice, and the samples were stored at −80° C. before assay. Measurement of eicosanoids was performed at UC Davis using the previous method (57).

O=C(O)CNCP(=O)(O)O [glyphosate]
gene expression of sEH (or Ephx2) mRNA in the PFC, hippocampus, and striatum (Ephx2 mRNA): significantly higher

polyriboinosinic-polyribocytidilic acid [Poly(I:C)]
5(6)-EpETrE level (ddY mice; PFC): 222.07 ± 22.38 pmol/g tissue
6-keto-PGF1α level (ddY mice; PFC): 22.088 ± 1.785 pmol/g tissue
8(9)-EpETrE level (ddY mice; PFC): 6.725 ± 0.892 pmol/g tissue
9(10)-EpOME level (ddY mice; PFC): 2.695 ± 0.424 pmol/g tissue
9,10,13-TriHOME level (ddY mice; PFC): 22.676 ± 3.814 pmol/g tissue
9,10-DiHOME level (ddY mice; PFC): 1.069 ± 0.188 pmol/g tissue
9,12,13-TriHOME level (ddY mice; PFC): 39.728 ± 6.854 pmol/g tissue
9-HODE level (ddY mice; PFC): 24.253 ± 3.782 pmol/g tissue
9-oxo-ODE level (ddY mice; PFC): 15.032 ± 2.690 pmol/g tissue
10(11)-EpDPE level (ddY mice; PFC): 3.698 ± 0.292 pmol/g tissue
11(12)-EpETrE level (ddY mice; PFC): 26.639 ± 3.530 pmol/g tissue
11-HETE level (ddY mice; PFC): 72.292 ± 5.677 pmol/g tissue
12(13)-EpOME level (ddY mice; PFC): 2.934 ± 0.435 pmol/g tissue
12,13-DiHOME level (ddY mice; PFC): 4.640 ± 0.477 pmol/g tissue
12-HETE level (ddY mice; PFC): 28.597 ± 2.727 pmol/g tissue
13-HODE level (ddY mice; PFC): 31.020 ± 5.237 pmol/g tissue
14(15)-EpETrE level (ddY mice; PFC): 30.74 ± 5.605 pmol/g tissue
15,16-DiHODE level (ddY mice; PFC): 2.785 ± 0.414 pmol/g tissue
15-HETE level (ddY mice; PFC): 68.997 ± 4.672 pmol/g tissue
19,20-DiHDPE level (ddY mice; PFC): 4.319 ± 0.331 pmol/g tissue
EKODE level (ddY mice; PFC): 6.552 ± 1.725 pmol/g tissue
PGD2 level (ddY mice; PFC): 147.79 ± 9.748 pmol/g tissue
PGE2 level (ddY mice; PFC): 16.359 ± 1.175 pmol/g tissue
PGF2a level (ddY mice; PFC): 86.798 ± 6.454 pmol/g tissue
Thromboxane B2 level (ddY mice; PFC): 43.922 ± 3.349 pmol/g tissue
5(6)-EpETrE level (ddY mice; cerebellum): 174.37 ± 11.71 pmol/g tissue
6-keto-PGF1a level (ddY mice; cerebellum): 29.69 ± 1.379 pmol/g tissue
8(9)-EpETrE level (ddY mice; cerebellum): 5.453 ± 0.582 pmol/g tissue
9(10)-EpOME level (ddY mice; cerebellum): 3.076 ± 0.662 pmol/g tissue
9,10,13-TriHOME level (ddY mice; cerebellum): 20.84 ± 3.099 pmol/g tissue
9,10-DiHOME level (ddY mice; cerebellum): 1.283 ± 0.279 pmol/g tissue
9,12,13-TriHOME level (ddY mice; cerebellum): 37.62 ± 5.925 pmol/g tissue
9-HODE level (ddY mice; cerebellum): 23.33 ± 2.571 pmol/g tissue
9-oxo-ODE level (ddY mice; cerebellum): 16.56 ± 2.802 pmol/g tissue
10(11)-EpDPE level (ddY mice; cerebellum): 6.061 ± 0.717 pmol/g tissue
11(12)-EpETrE level (ddY mice; cerebellum): 21.10 ± 1.869 pmol/g tissue
12(13)-EpOME level (ddY mice; cerebellum): 2.989 ± 0.423 pmol/g tissue
12,13-DiHOME level (ddY mice; cerebellum): 5.406 ± 0.682 pmol/g tissue
13-HODE level (ddY mice; cerebellum): 30.47 ± 4.048 pmol/g tissue
14(15)-EpETrE level (ddY mice; cerebellum): 26.63 ± 3.595 pmol/g tissue
15,16-DiHODE level (ddY mice; cerebellum): 2.772 ± 0.423 pmol/g tissue
15-HETE level (ddY mice; cerebellum): 36.59 ± 3.256 pmol/g tissue
19,20-DiHDPE level (ddY mice; cerebellum): 9.767 ± 0.858 pmol/g tissue
EKODE level (ddY mice; cerebellum): 7.801 ± 1.325 pmol/g tissue
PGD2 level (ddY mice; cerebellum): 21.60 ± 1.774 pmol/g tissue
PGE2 level (ddY mice; cerebellum): 6.969 ± 0.684 pmol/g tissue
PGF2a level (ddY mice; cerebellum): 46.32 ± 3.830 pmol/g tissue
TXB2 level (ddY mice; cerebellum): 14.62 ± 0.876 pmol/g tissue
12-HETE level (ddY mice; cerebellum, first of two lines printed 12-HETE (r21)): 34.19 ± 3.215 pmol/g tissue
12-HETE level (ddY mice; cerebellum, second of two lines printed 12-HETE (r23)): 75.46 ± 28.38 pmol/g tissue
5(6)-EpETrE level (ddY mice; hippocampus): 333.09 ± 30.68 pmol/g tissue
6-keto-PGF1α level (ddY mice; hippocampus): 47.853 ± 3.589 pmol/g tissue
8(9)-EpETrE level (ddY mice; hippocampus): 10.53 ± 0.809 pmol/g tissue
9(10)-EpOME level (ddY mice; hippocampus): 3.933 ± 0.304 pmol/g tissue
9,10,13-TriHOME level (ddY mice; hippocampus): 31.142 ± 2.301 pmol/g tissue
9,10-DiHOME level (ddY mice; hippocampus): 0.814 ± 0.116 pmol/g tissue
9,12,13-TriHOME level (ddY mice; hippocampus): 54.137 ± 3.954 pmol/g tissue
9-HODE level (ddY mice; hippocampus): 34.887 ± 1.969 pmol/g tissue
9-oxo-ODE level (ddY mice; hippocampus): 24.50 ± 1.957 pmol/g tissue
10(11)-EpDPE level (ddY mice; hippocampus): 6.103 ± 0.347 pmol/g tissue
11(12)-EpETrE level (ddY mice; hippocampus): 42.05 ± 3.911 pmol/g tissue
11-HETE level (ddY mice; hippocampus): 106.263 ± 6.366 pmol/g tissue
12(13)-EpOME level (ddY mice; hippocampus): 4.641 ± 0.393 pmol/g tissue
12,13-DiHOME level (ddY mice; hippocampus): 4.478 ± 0.528 pmol/g tissue
12-HETE level (ddY mice; hippocampus): 83.22 ± 12.09 pmol/g tissue
13-HODE level (ddY mice; hippocampus): 41.916 ± 2.454 pmol/g tissue
14(15)-EpETrE level (ddY mice; hippocampus): 45.020 ± 3.734 pmol/g tissue
15,16-DiHODE level (ddY mice; hippocampus): 2.295 ± 0.364 pmol/g tissue
15-HETE level (ddY mice; hippocampus): 100.514 ± 6.210 pmol/g tissue
19,20-DiHDPE level (ddY mice; hippocampus): 4.228 ± 0.321 pmol/g tissue
EKODE level (ddY mice; hippocampus): 14.86 ± 0.949 pmol/g tissue
PGD2 level (ddY mice; hippocampus): 119.25 ± 8.999 pmol/g tissue
PGE2 level (ddY mice; hippocampus): 20.186 ± 1.410 pmol/g tissue
PGF2a level (ddY mice; hippocampus): 153.113 ± 10.00 pmol/g tissue
Thromboxane B2 level (ddY mice; hippocampus): 65.491 ± 5.906 pmol/g tissue
